# Test results as given in patent publication US20110124589A1, “INHALED FOSFOMYCIN/TOBRAMYCIN FOR THE TREATMENT OF CHRONIC OBSTRUCTIVE PULMONARY DISEASE” (Gilead Sciences, Inc., priority 2009, published 2011).
# Like-named read-outs stand apart in the source and are kept apart here.
# Tests used:
# [1] = test system: S. pneumoniae; settings: 8 isolates; agar dilution; cited from earlier work
# [2] = test system: P. aeruginosa C177; experiment: Rat bacterial pneumonia model
# Method: Animals were handled according to the guidelines for the Care and use of Laboratory Animals. […] All animal protocols were approved by an IRB/Ethics Committee. Male Sprague-Dawley rats (180-200 g) were obtained from Charles River Laboratories (Hollister, Calif., USA) and acclimatized for 5 days prior to use. Animals were housed individually in ventilated cages, fed Purina Lab Diet ad libitum and allowed free access to water.
# Antibiotic efficacy was determined using a rat bacterial pneumonia model. […] Rats were anaesthetized with isoflurane, and ˜10^3 cfu of P. aeruginosa C177 in 2% agar solution were instilled into the lungs with an oral gavage needle. The inoculum was deposited at the first bifurcation and distributed throughout the lungs by inspiration. Animals were allowed to recover for 18 hr post-infection. Each experiment consisted of pre-treatment (n=5-7), saline control with isoflurane, and 100 μL of antibiotic solution or saline was instilled in the trachea using a Microsprayer™ (Penn-Century In., Philadelphia, Pa., USA). Antibiotics were administered intratracheally twice daily for 3 days.
# Animals were euthanized by intraperitoneal administration of sodium pentobarbital. The pre-treatment control group was harvested 18 hr post-infection, and the saline and treatment groups 18 hr after the last antibiotic exposure. Lungs were removed aseptically, homogenized in sterile normal saline and viable bacteria determined by the colony count method. Statistical differences between the saline control group and treatment groups were evaluated by the Mann-Whitney Rank Sum Test using GraphPad Prism® software package version 3.03 (GraphPad Software, Inc., San Diego, Calif., USA).
# [3] = test system: S. aureus; experiment: MIC, agar-plate dilution (Method A)
# Method: (§1) The efficacy of antibiotics and antibiotic combinations against Gram-positive and Gram-negative bacteria representative of species that cause respiratory infections were evaluated in MIC assays. […] H. influenzae, M. catarrhalis, and S. aureus, were isolated from respiratory tract infections. E. coli ATCC 25922, P. aeruginosa ATCC 27853, and S. aureus ATCC 29213 were used as quality control stains.
# (§2) Method A: The MICs of fosfomycin alone, tobramycin alone, or combinations of fosfomycin plus tobramycin were determined by the agar-plate dilution method according to NCCLS guidelines (NCCLS, 2003). Bacterial strains were streaked onto Trypic Soy Agar plates (PML Microbiologicals, Wilsonville, Oreg.) containing 5% defibrinated sheep blood (hereafter referred to as blood agar plates) and incubated overnight at 35° C. Two to three bacterial colonies from the overnight cultures were inoculated into 3 mL of sterile normal saline, vortexed briefly, and adjusted to a 0.5 McFarland standard (NCCLS, 2003). The bacterial suspension was diluted 1:40 in sterile normal saline and served as the inoculum. Mueller-Hinton agar plates (hereafter referred to as MHA) were prepared by combining 16 g of agarose (Becton-Dickinson, Sparks, Md.), 22 g of Mueller-Hinton broth powder (Becton-Dickinson, Sparks, Md.), and adjusted to 1 L with distilled water. The agar was sterilized by autoclaving, cooled to 55° C., and supplemented with 25 μg/mL of glucose-6-phosphate (Sigma-Aldrich, St. Louis, Mo.). Twenty-five mL of cooled agar was aliquoted into 50 mL conical tubes and supplemented with appropriate concentrations of antibiotic to achieve concentrations ranging from 0.06 μg/mL to 512 μg/mL. After gently mixing the agar and antibiotic, the suspension was poured into sterile 100 mm petri dishes and allowed to solidify at room temperature. The antibiotic agar plates were inoculated with approximately 2×10^4 CFU/spot with a 48-point inoculator (Sigma-Aldrich, St. Louis, Mo.). The MIC was defined as the lowest concentration of antibiotic (s) that prevented visible growth after incubation for 18-20 hours at 35° C.
# [4] = test system: H. influenzae; experiment: MIC of recent clinical isolates, agar dilution (CMI study); type: cell-based; settings: Haemophilus influenzae
# [5] = test system: B. cepacia complex; settings: 20 isolates; agar dilution; cited from earlier work
# [6] = test system: H. influenzae; settings: cited from earlier work; for Range of MBC/MIC: 6 strains
# [7] = test system: P. aeruginosa; experiment: MIC, agar-plate dilution with 2% porcine gastric mucin (Method B); type: cell-based; settings: Pseudomonas aeruginosa; 100 P. aeruginosa strains from cystic fibrosis lung sputum; 2% mucin
# Method: Bacterial strains were streaked onto […] […] Louis, Mo.). […] Louis, Mo.). […] Methodologies were identical to that described in Method A above, with the exception that 2% (weight/volume) porcine gastric mucin (Sigma Chemical Co., St. Louis, Mo.) was added to the MHA prior to autoclaving.
# [8] = test system: H. influenzae; settings: 16 isolates; agar dilution; cited from earlier work
# [9] = test system: S. pneumoniae; experiment: MIC, agar-plate dilution (Method A); settings: Streptococcus pneumoniae
# Method: as §1, §2
# [10] = test system: P. aeuriginosa; experiment: Dose-response time-kill studies in 2% mucin; type: cell-based; settings: for bactericidal or bacteriostatic / time-dependent or concentration-dependent killing: 2% mucin (FIGS. 4-6)
# [11] = test system: P. aeruginosa ATCC 27853; experiment: Time-kill experiments in 2% porcine gastric mucin; type: cell-based; settings: 2% mucin; for activity at 24 hours in time-kill curves (FIG. 2): 12.8 μg/mL fosfomycin, 3.2 μg/mL tobramycin, or both; for killing activity in time-kill curves (FIG. 2): 4×MIC: 12.8 μg/mL fosfomycin + 3.2 μg/mL tobramycin vs the components alone; for killing activity in time-kill curves (FIG. 1): 9:1 combination (fosfomycin 14.4 μg/mL + tobramycin 1.6 μg/mL) vs the components alone
# Method: These studies were previously reported in PCT Publication no. WO2005/110022 to Gilead Sciences, Inc. (formerly Carus Pharma). Two to three bacterial colonies were inoculated into 10 mL CAMHB and incubated at 35° C. in a shaking water bath (250 rpm) for 18-24 hours. A 1:40 dilution of the overnight culture was made in 10 mL of fresh CAMHB and incubated at 35° C. in a shaking water bath (250 rpm) for 1-2 hours. […] Ten milliliter aliquots were then pipeted into 50 mL conical tubes. […] The killing activity of fosfomycin plus tobramycin was also compared to the killing activity of the individual components. […] A no drug control was conducted in each experiment. […] Bacterial killing was determined at 0, 1, 2, 4, 6, and 24 hours by making 10-fold serial dilutions of the cultures in sterile normal saline, and spreading 100 μl aliquots on blood agar plates. […] The limit of detection for the colony counting method was 1 Log10. Time-kill curves were constructed by plotting the Log10 number of CFU/mL culture versus time.
# [12] = test system: M. catarrhalis; experiment: MIC of recent clinical isolates, agar dilution (CMI study); type: cell-based; settings: Moraxella catarrhalis; 103 isolates
# [13] = test system: M. catarrhalis; settings: 5 isolates; agar dilution; cited from earlier work
# [14] = Sputum drug concentrations following aerosolization of FTI; type: in vivo, human; settings: for sputum concentration range for patient type and dose: both FTI doses, CF and bronchiectasis patients; for Cmax: human, sputum, inhaled
# Method: In order to assess the amount of drug delivered to the respiratory track, drug concentration was measured in expectorated sputum for patients with CF or bronchiectasis. The fosfomycin and tobramycin range for patient type and dose was 1751-2974 μg/g and 326-881 μg/g, respectively.
# [15] = test system: H. influenzae; experiment: MIC, agar-plate dilution (Method A)
# Method: as §1, §2
# [16] = test system: E. coli; settings: cited from earlier work; for Range of MBC/MIC: 10 strains
# [17] = test system: S. aureus; settings: cited from earlier work; for Range of MBC/MIC: 10 strains
# [18] = test system: S. aureus; experiment: MIC of recent clinical isolates, agar dilution (CMI study); type: cell-based; settings: Staphylococcus aureus
# [19] = test system: S. pyogenes; settings: 5 isolates; broth microdilution; cited from earlier work
# [20] = test system: P. aeruginosa; settings: agar dilution, cited from earlier work
# [21] = test system: Klebsiella spp.; settings: cited from earlier work; for Range of MBC/MIC: 5 strains
# [22] = test system: P. aeruginosa ATCC 27853; experiment: MBC/MIC, broth microdilution
# Method: The MBCs of fosfomycin and tobramycin alone for P. aeruginosa ATCC 27853, E. coli ATCC 25922, and S. aureus ATCC 29213 were determined by the broth microdilution method according to NCCLS standards (NCCLS, 1999). […] Bacterial strains were streaked onto blood agar plates and incubated at 35° C. for 18-24 hours. Two to three bacterial colonies from the overnight cultures were inoculated into 3 mL of sterile normal saline, vortexed briefly, and adjusted to a 0.5 McFarland standard (NCCLS, 2003). Fifty microliters of bacterial inoculum (approximately 2×10^5 CFU/mL) was pipeted into individual wells of 96-well plates containing 50 μl of CAMHB (Remel, Lenexa, Kanas) supplemented with 2-fold dilutions of antibiotics ranging in concentration from 0.125 μg/mL to 128 μg/mL. […] The contents of wells showing no growth (MIC and above) were mixed with a pipetor and duplicate 10 μl samples spread onto blood agar plates. Culture plates were incubated at 35° C. for 18-24 hours and the number of bacterial colonies on each plate enumerated manually. Rejection values were determined by NCCLS methods which considers the final inoculum size, single or double sampling, pipetting error, and the Poisson distributuion of sample responses (NCCLS, 1999). […] The MBC/MIC ratios were calculated by dividing the MBC by the MIC.
# [23] = test system: Klebsiella spp.; settings: 22 isolates; broth microdilution; cited from earlier work
# [24] = test system: S. pneumoniae; experiment: MIC of recent clinical isolates, agar dilution (CMI study); type: cell-based
# [25] = 20 mg, patients with Bronchiectasis, aerosolized 80:20 mg FTI
# [26] = 20 mg, patients with Cystic Fibrosis, aerosolized 80:20 mg FTI
# [27] = 40 mg, patients with Bronchiectasis, aerosolized 160:40 mg FTI
# [28] = 40 mg, patients with Cystic Fibrosis, aerosolized 160:40 mg FTI
# [29] = Penicillin resistant, 32 isolates
# [30] = Streptococcus pneumoniae, Penicillin resistant, 32 isolates
# [31] = Streptococcus pneumoniae, penicillin suscept., 39 isolates
# [32] = Streptococcus pneumoniae, penicillin suscept., 39 isolates, read-out: MIC50
smiles,measurement,setting,value
C[C@@H]1O[C@@H]1P(=O)(O)O [Fosfomycin],MIC range,[1],8 to 32 µg/mL
same,reduction in cfu/lung,[2]; =10 mg/kg intratracheally (FIG. 12),not observed
same,MIC,[3]; Staphylococcus aureus,2 µg/mL
same,MIC,"[3]; Staphylococcus aureus, MRSA",4 µg/mL
same,MIC,"[3]; Staphylococcus aureus, MSSA",1 µg/mL
same,MIC,[3]; strain COR-060 (GISA),2 µg/mL
same,MIC50,"[4]; β-lactamase neg, 62 isolates",0.25 µg/mL
same,MIC90,"[4]; β-lactamase neg, 62 isolates",8 µg/mL
same,MIC50,"[4]; β-lactamase pos, 39 isolates",0.5 µg/mL
same,MIC90,"[4]; β-lactamase pos, 39 isolates",2 µg/mL
same,MIC50,[5],>512 µg/mL
same,MIC90,[5],>512 µg/mL
same,Range of MBC/MIC,[6],1-8
same,strains against which bactericidal,[6],83%
same,MIC50,[7],64 µg/mL
same,MIC90,[7],128 µg/mL
same,MIC50,[8],0.5 µg/mL
same,MIC90,[8],2 µg/mL
same,MIC range,[8],0.25 to 4 µg/mL
same,MIC,[9]; strain COR-061,32 µg/mL
same,MIC,[9]; strain COR-068,8 µg/mL
same,bactericidal or bacteriostatic,[10],bacteriostatic
same,time-dependent or concentration-dependent killing,[10],time-dependent killing
same,activity at 24 hours in time-kill curves (FIG. 2),[11],re-growth was observed
same,killing activity in time-kill curves (FIG. 2),[11],bacteriostatic activity
same,killing activity in time-kill curves (FIG. 1),[11],bacteriostatic killing
same,MIC50,[12],8 µg/mL
same,MIC90,[12],16 µg/mL
same,MIC range,[13],4 to 16 µg/mL
same,sputum concentration range for patient type and dose,[14],1751 to 2974 µg/g
same,Cmax,[14]; [25],1.75e+06 ng/g
same,Cmax,[14]; [26],2.07e+06 ng/g
same,Cmax,[14]; [27],1.98e+06 ng/g
same,Cmax,[14]; [28],2.97e+06 ng/g
same,MIC,[15]; Haemophilus influenzae,8 µg/mL
same,MIC,"[15]; Haemophilus influenzae, strain COR-049",128 µg/mL
same,Range of MBC/MIC,[16],1-8
same,strains against which bactericidal,[16],90%
same,Range of MBC/MIC,[17],1-8
same,strains against which bactericidal,[17],80%
same,MIC50,"[18]; MRSA, 103 isolates",4 µg/mL
same,MIC90,"[18]; MRSA, 103 isolates",8 µg/mL
same,MIC50,"[18]; MSSA, 104 isolates",4 µg/mL
same,MIC90,"[18]; MSSA, 104 isolates",4 µg/mL
same,MIC range,[19],16 to 64 µg/mL
same,MIC50,"[20]; CF, 100 isolates",64 µg/mL
same,MIC90,"[20]; CF, 100 isolates",512 µg/mL
same,MIC50,"[20]; non-CF, 60 isolates",32 µg/mL
same,MIC90,"[20]; non-CF, 60 isolates",128 µg/mL
same,Range of MBC/MIC,[21],1-4
same,strains against which bactericidal,[21],100%
same,MBC/MIC,[22],=8
same,MIC50,[23],4 µg/mL
same,MIC90,[23],16 µg/mL
same,MIC range,[23],0.5-16^ mg/L
same,MIC50,[24]; [29],16 µg/mL
same,MIC90,[24]; [30],32 µg/mL
same,MIC90,[24]; [31],16 µg/mL
same,MIC50,[24]; [32],16 µg/mL
NC[C@H]1O[C@H](O[C@H]2[C@H](O)[C@@H](O[C@H]3O[C@H](CO)[C@@H](O)[C@H](N)[C@H]3O)[C@H](N)C[C@@H]2N)[C@H](N)C[C@@H]1O [Tobramycin],MIC range,[1],16 to 64 µg/mL
same,reduction in lung burden,[2]; 1 mg/kg of tobramycin alone (FIG. 11),~500 fold
same,bacterial killing in rat lung,[2]; 2.5 mg/kg intratracheally twice daily for 3 days (FIG. 11),3 Log10
same,eradication of P. aeruginosa infection,[2]; doses higher than 3 mg/kg intratracheally,complete eradication
same,bacterial killing in rat lung,[2]; doses=0.5 mg/kg intratracheally,did not result in bacterial killing
same,MIC,[3]; Staphylococcus aureus,64 µg/mL
same,MIC,"[3]; Staphylococcus aureus, MRSA",0.25 µg/mL
same,MIC,"[3]; Staphylococcus aureus, MSSA",0.25 µg/mL
same,MIC,"[3]; Staphylococcus aureus, strain COR-059",128 µg/mL
same,MIC50,"[4]; β-lactamase neg, 62 isolates",4 µg/mL
same,MIC90,"[4]; β-lactamase neg, 62 isolates",8 µg/mL
same,MIC50,"[4]; β-lactamase pos, 39 isolates",4 µg/mL
same,MIC90,"[4]; β-lactamase pos, 39 isolates",4 µg/mL
same,MIC50,[5],64 µg/mL
same,MIC90,[5],512 µg/mL
same,Range of MBC/MIC,[6],1-2
same,strains against which bactericidal,[6],100%
same,MIC50,[7],16 µg/mL
same,MIC90,[7],64 µg/mL
same,MIC50,[8],1 µg/mL
same,MIC90,[8],1 µg/mL
same,MIC range,[8],0.5 to 1 µg/mL
same,MIC,[9]; strain COR-061,64 µg/mL
same,MIC,[9]; strain COR-068,16 µg/mL
same,bactericidal or bacteriostatic,[10],rapidly bactericidal
same,time-dependent or concentration-dependent killing,[10],concentration-dependent killing
same,re-growth within 24 hours,[10]; 2% mucin (FIGS. 5-6),re-growth occurred within 24 hours
same,activity at 24 hours in time-kill curves (FIG. 2),[11],re-growth was observed
same,killing activity in time-kill curves (FIG. 2),[11],bacteriostatic activity
same,killing activity in time-kill curves (FIG. 1),[11],bacteriostatic killing
same,MIC50,[12],0.12 µg/mL
same,MIC90,[12],0.25 µg/mL
same,MIC range,[13],0.5 to 1 µg/mL
same,sputum concentration range for patient type and dose,[14],326 to 881 µg/g
same,Cmax,[14]; [25],326000 ng/g
same,Cmax,[14]; [26],580000 ng/g
same,Cmax,[14]; [27],587000 ng/g
same,Cmax,[14]; [28],881000 ng/g
same,MIC,[15]; Haemophilus influenzae,0.5 µg/mL
same,MIC,[15]; strain COR-049,0.5 µg/mL
same,Range of MBC/MIC,[16],1-4
same,strains against which bactericidal,[16],100%
same,Range of MBC/MIC,[17],1-2
same,strains against which bactericidal,[17],100%
same,MIC50,"[18]; MRSA, 103 isolates",0.5 µg/mL
same,MIC90,"[18]; MRSA, 103 isolates",> 32 µg/mL
same,MIC50,"[18]; MSSA, 104 isolates",0.25 µg/mL
same,MIC90,"[18]; MSSA, 104 isolates",0.5 µg/mL
same,MIC range,[19],16 to 64 µg/mL
same,MIC50,"[20]; CF, 100 isolates",2 µg/mL
same,MIC90,"[20]; CF, 100 isolates",16 µg/mL
same,MIC50,"[20]; non-CF, 60 isolates",1 µg/mL
same,MIC90,"[20]; non-CF, 60 isolates",128 µg/mL
same,Range of MBC/MIC,[21],1-4
same,strains against which bactericidal,[21],100%
same,MBC/MIC,[22],1
same,MIC50,[23],0.13 µg/mL
same,MIC90,[23],16 µg/mL
same,MIC50,[24]; [29],32 µg/mL
same,MIC90,[24]; [30],> 32 µg/mL
same,MIC90,[24]; [31],> 32 µg/mL
same,MIC50,[24]; [32],32 µg/mL
